Target: T1, Gamma-aminobutyric acid receptor subunit alpha-2 (Homo sapiens, UniProt P18507+P47869+P47870)
T1 sequence (P47869 whole entry): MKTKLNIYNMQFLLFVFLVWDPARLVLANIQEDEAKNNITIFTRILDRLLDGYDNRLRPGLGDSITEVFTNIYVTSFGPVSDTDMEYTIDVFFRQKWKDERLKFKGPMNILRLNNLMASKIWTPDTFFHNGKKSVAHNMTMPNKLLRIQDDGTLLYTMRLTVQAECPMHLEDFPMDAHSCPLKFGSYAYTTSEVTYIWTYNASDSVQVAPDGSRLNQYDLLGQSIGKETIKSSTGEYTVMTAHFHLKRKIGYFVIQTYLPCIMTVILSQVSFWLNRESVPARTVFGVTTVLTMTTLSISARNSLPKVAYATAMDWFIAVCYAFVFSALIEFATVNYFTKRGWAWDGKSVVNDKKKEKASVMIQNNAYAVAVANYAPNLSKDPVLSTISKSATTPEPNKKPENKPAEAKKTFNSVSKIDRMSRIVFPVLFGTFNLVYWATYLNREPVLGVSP
Experiment: Binding Assay
Method: 100 ul of radioligand and 100 ul of membrane in 50 mM Tris-HCl and 0.05% F127 with 1 ul of test compound was incubated for 2 hours to allow the reaction to achieve equilibrium, and then harvested onto filter plates, dried and counted on a TopCount NXT. The data was analysed, and the Ki values were presented as the geometric mean of at least two replicates.

- Ki: 11.8 nM
SMILES: CCn1ncc2c(-c3ccc(F)c(-c4cc5c(cc4OC)C(=O)N(C)C5)c3)cnnc21 [US10538523, Example 3]
